The values below come from doi:10.1101/2022.01.16.476523v1, “Novel MBLs inhibitors screened from FDA-approved drug library restore the susceptibility of carbapenems to NDM-1-harbouring bacteria” (biorxiv, 2022).

Common to all, as to assay: microbe, parasite or virus in culture
What all share (set-up): CLSI broth microdilution MIC in LB, lowest concentration with no visible growth
In general terms: Dilution methods test growth across graded concentrations, often in twofold steps.

Test [1] deals with T1, E. coli ZJ487 (NDM-1).
T1 construct: ZJ487 (NDM-1)
The note with it: Escherichia coli; antibiotic alone; read-out: MIC (μg/mL) Alone.

Test [2] concerns T2, E. coli BL21 (pET28a-SP-NDM-1).
T2 construct: BL21 (pET28a-SP-NDM-1)
Conditions: Escherichia coli, read-out: MIC (μg/mL) Alone.

The subject of test [3] is T3, E. coli ZC-YN7 (NDM-9).
T3 construct: ZC-YN7 (NDM-9)
The note with it: Escherichia coli; antibiotic alone; read-out: MIC (μg/mL) Alone.

The subject of test [4] is T4, E. coli ZC-YN3 (NDM-1).
T4 construct: ZC-YN3 (NDM-1)
Conditions: Escherichia coli; antibiotic alone; read-out: MIC (μg/mL) Alone.

Test [5] deals with T5, K. pneumoniae QD-KP1 (NDM-1).
T5 construct: QD-KP1 (NDM-1)
Conditions: Klebsiella pneumoniae; antibiotic alone; read-out: MIC (μg/mL) Alone.

For test [6], the system named is T6, E. coli ATCC 25922.
T6 construct: ATCC 25922
Conditions: Escherichia coli, ATCC25922; antibiotic alone; read-out: MIC (μg/mL) Alone.

The test system of test [7] is T7, E. coli 2Z69 (NDM-5).
T7 construct: 2Z69 (NDM-5)
Conditions: Escherichia coli; antibiotic alone; read-out: MIC (μg/mL) Alone.

Test [8] has as its system T8, E. cloacae 20712 (VIM-1).
T8 construct: 20712 (VIM-1)
The note with it: Enterobacter cloacae; antibiotic alone; read-out: MIC (μg/mL) Alone.

The test system of test [9] is T9, E. cloacae 20710 (VIM-1).
T9 construct: 20710 (VIM-1)
The note with it: Enterobacter cloacae; antibiotic alone; read-out: MIC (μg/mL) Alone.

Test [10] concerns T10, K. pneumoniae QD-KP3 (NDM-1).
T10 construct: QD-KP3 (NDM-1)
The note with it: Klebsiella pneumoniae; antibiotic alone; read-out: MIC (μg/mL) Alone.

For test [11], the system named is T11, E. coli D3 (NDM-1).
T11 construct: D3 (NDM-1)
Conditions: Escherichia coli; antibiotic alone; read-out: MIC (μg/mL) Alone.

Test [12] relates to T12, K. pneumoniae QD-KP2 (NDM-1).
T12 construct: QD-KP2 (NDM-1)
Conditions: Klebsiella pneumoniae; antibiotic alone; read-out: MIC (μg/mL) Alone.

The subject of test [13] is T13, E. coli E4 (NDM-5).
T13 construct: E4 (NDM-5)
The note with it: Escherichia coli; antibiotic alone; read-out: MIC (μg/mL) Alone.

Test [14] concerns T14, E. coli E2 (NDM-9).
T14 construct: E2 (NDM-9)
Conditions: Escherichia coli; antibiotic alone; read-out: MIC (μg/mL) Alone.

The subject of test [15] is T15, E. coli E1 (NDM-1).
T15 construct: E1 (NDM-1)
Conditions: Escherichia coli; antibiotic alone; read-out: MIC (μg/mL) Alone.

Test [16] relates to T16, E. coli 2Z49 (NDM-5).
T16 construct: 2Z49 (NDM-5)
Conditions: Escherichia coli; antibiotic alone; read-out: MIC (μg/mL) Alone.

In brackets after ≈: the same amount, converted by molar mass.

`CNC(C)[C@@H]1CC[C@@H](N)[C@@H](O[C@H]2[C@H](O)[C@@H](O[C@H]3OC[C@](C)(O)[C@H](NC)[C@H]3O)[C@H](N)C[C@@H]2N)O1` (stereo partly drawn) [Gentamicin]: the MIC in [1] amounted to 341 ± 121 µg/mL (≈ 715 µM).

As for `C[C@@H](O)[C@H]1C(=O)N2C(C(=O)O)=C(SCCNC=N)C[C@H]12` [Imipenem], in test [1], the MIC is 13.3 ± 3.77 µg/mL (≈ 44.5 µM).

For the compound `CC1(C)S[C@@H]2[C@H](NC(=O)[C@H](N)c3ccc(O)cc3)C(=O)N2[C@H]1C(=O)O` [Amoxicillin], the MIC in test [1] was 512 µg/mL (≈ 1400 µM).

On to `CN(C)[C@@H]1C(O)=C(C(N)=O)C(=O)[C@@]2(O)C(O)=C3C(=O)c4c(O)cccc4[C@@](C)(O)[C@H]3C[C@@H]12` [Tetracycline], for which the MIC in [1] came to 213 ± 60.3 µg/mL (≈ 480 µM).

`O=C(N[C@H](CO)[C@H](O)c1ccc([N+](=O)[O-])cc1)C(Cl)Cl` [Chloramphenicol]: in [1], the MIC is 8 µg/mL (≈ 24.8 µM).

For `C[C@@H](O)[C@H]1C(=O)N2C(C(=O)O)=C(S[C@@H]3CN[C@H](C(=O)N(C)C)C3)[C@H](C)[C@H]12` [Meropenem], the MIC in test [2] is 128 µg/mL (≈ 334 µM); in test [3] it was 13.3 ± 3.77 µg/mL (≈ 34.8 µM); in test [4], 21.3 ± 7.54 µg/mL (≈ 55.6 µM); in [5] it was 64 µg/mL (≈ 167 µM); in test [6], 0.03 µg/mL (≈ 0.0782 µM); in test [7], 32 µg/mL (≈ 83.4 µM). Further, the MIC worked out at 32 µg/mL (≈ 83.4 µM) in test [8]; 32 µg/mL (≈ 83.4 µM) in [9]; 128 µg/mL (≈ 334 µM) in [10]; 13.3 ± 3.77 µg/mL (≈ 34.8 µM) in [11]; 107 ± 30.2 µg/mL (≈ 278 µM) in [12]; 53.3 ± 15.1 µg/mL (≈ 139 µM) in test [13]. In addition, the MIC in [14] was 53.3 ± 15.1 µg/mL (≈ 139 µM); in test [15], 13.3 ± 3.77 µg/mL (≈ 34.8 µM); in test [16], 32 µg/mL (≈ 83.4 µM); in [1] it was 32 µg/mL (≈ 83.4 µM).
